PMC3433708, “Structural Basis for Specific Recognition of Substrates by Sapovirus Protease” (Frontiers in Microbiology, 2012)

Molecular target: T1, SaV protease (3C-like protease domain of NS6-7, Pro^wt) (Sapovirus Mc10, UniProt Q6XDK8)
T1 construct: gene ORF1; partial ORF1 polyprotein NS6-7-VP1 with functional protease, made by coupled in vitro transcription/translation in rabbit reticulocyte lysate, not purified; protease domain 146 residues; from ORF1 polyprotein of 2278 residues
Experiment: in vitro trans cleavage assay, […]-labelled ORF1 polyprotein (Pro^mut), SDS-PAGE, NS4-NS5 band
Assay type: biochemical

T1 sequence (Q6XDK8 1056-1201): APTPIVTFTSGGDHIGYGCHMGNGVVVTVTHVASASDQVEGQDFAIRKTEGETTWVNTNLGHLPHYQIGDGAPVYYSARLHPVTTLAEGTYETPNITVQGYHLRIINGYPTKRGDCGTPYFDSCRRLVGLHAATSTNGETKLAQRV

| Compound | IC50 [µM] |
| --- | --- |
| Cc1ccc(C)n1C(CC(=O)O)c1ccc(OCc2ccccc2)cc1 (stereo not drawn) [compound 116, Compound No.116] | 18.4 |
| CN(C)c1ccc(/C=C2\CCCC3C2=NN(C(=O)CCC(=O)O)C3c2ccc(N(C)C)cc2)cc1 (stereo not drawn) [compound 50, Compound No.50] | 26.5 |
| Cc1cccc(N2CCN(c3ccc(C(=O)O)cc3NS(=O)(=O)c3cc(C)cc(C)c3)CC2C)c1 (stereo not drawn) [compound 100, Compound No.100] | 18.4 |
